Measured values published in US12643913B2, “Mcl-1 inhibitor formulations” (AMGEN INC., priority 2020, dated 2026).
In brackets after ≈: the same amount, converted by molar mass. Where two headings read alike, the source gives them in different places.

Assays:
[1] = Solubility of AMG 397 in common spray-drying solvents; type: physicochemical
Description: Solvent selection: The solubility of AMG 397 was measured in solvents commonly used for spray drying. […] Based on the solubility data, tetrahydrofuran (THF) was selected as a solvent for the initial spray drying-work and further work was conducted in DCM.
AMG 397 is known to form solvates with many solvents. The formation of a solvate can lead to precipitation from solution due to the lower solubility in the solvent. Care must be taken to select a solvent and concentration of AMG 397 which can be maintained for the duration of the spray-drying process. The solubility of AMG 397 was highest in DCM where concentrations >100 mg/mL were achieved. Both DCM and THF are ICH class II solvents with residual solvent limits of 600 and 720 ppm, respectively. Therefore, the residual solvent levels must be removed to below these levels during the secondary drying process.

[2] = Stability of AMG 397 in THF and DCM solution at 1 mg/mL, room temperature, amber and clear vials (peak area % at 280 nm); type: physicochemical; conditions: for Peak Area % (280 nm), AMG 397 peak RRT 1.00: 1 mg/mL, room temperature
Description: The stability of AMG 397 was assessed in both THF and DCM over 24 hours to cover the processing time in the solvent. The stability was assessed in both amber and clear glass vials to assess the impact of light on stability.
Light had little impact on degradation up to 72 hours in DCM.

CO[C@]1(CN2CCN3CCCC[C@@H]3C2)/C=C/C[C@H](C)[C@@H](C)S(=O)(=O)NC(=O)c2ccc3c(c2)N(C[C@@H]2CC[C@H]21)C[C@@]1(CCCc2cc(Cl)ccc21)CO3 [AMG 397, (1S,3′R,6′R,7′R,8′E,11'S,12′R)-6-chloro-7′-methoxy-11′,12′-dinethyl-7′-((9aR)-octahydro-2H-pyrido[1,2-a]pyrazin-2-ylmethyl)-3,4-dihydro-2H,15′H-spiro[naphthalene-1,22′-[20]oxa[13]thia[1,14]diazatetracyclo [14.7.2.0^3,6.0^19,24]pentacosa[8,16,18,24]tetraen]-15′-one 13′,13′-dioxide]
solubility ([1]; Dichloromethane (DCM)): > 100000 µg/mL
solubility ([1]; Tetrahydrofuran (THF)): 33500 µg/mL (≈ 43800 µM)
solubility ([1]; acetone, organic solvent or mixture, read-out: Solubility): 370 µg/mL (≈ 483 µM)
solubility ([1]; ethanol, organic solvent or mixture, read-out: Solubility): 150 µg/mL (≈ 196 µM)
solubility ([1]; ethyl acetate, organic solvent or mixture, read-out: Solubility): 750 µg/mL (≈ 980 µM)
solubility ([1]; methanol, organic solvent or mixture, read-out: Solubility): 90 µg/mL (≈ 118 µM)
solubility at 24 h ([1]; organic solvent or mixture, thermodynamic from solid, THF, after 24 hours, extended stirring at room temperature, solid precipitated, read-out: Final solubility in THF): 33500 µg/mL (≈ 43800 µM)
solubility ([1]; organic solvent or mixture, thermodynamic from solid, THF, before extended stirring, read-out: Solubility in THF, initially): > 50000 µg/mL
solubility ([1]; organic solvent or mixture, DCM, concentrations achieved, read-out: Solubility in DCM): > 100000 µg/mL
Solubility in THF in the presence of water ([1]; various ratios of THF-water): drops significantly
solubility ([1]; water, read-out: Solubility): 7 µg/mL (≈ 9.14 µM)
Peak Area % (280 nm), AMG 397 peak RRT 1.00 ([2]; DCM, 2 Hrs, Amber): 99.49%
Peak Area % (280 nm), AMG 397 peak RRT 1.00 ([2]; DCM, 2 Hrs, Clear): 99.47%
Peak Area % (280 nm), AMG 397 peak RRT 1.00 ([2]; DCM, 4 Hrs, Amber): 99.44%
Peak Area % (280 nm), AMG 397 peak RRT 1.00 ([2]; DCM, 4 Hrs, Amber (second 4 Hrs column)): 99.52%
Peak Area % (280 nm), AMG 397 peak RRT 1.00 ([2]; DCM, 24 Hrs, Amber): 99.44%
Peak Area % (280 nm), AMG 397 peak RRT 1.00 ([2]; DCM, 24 Hrs, Clear): 99.48%
Peak Area % (280 nm), AMG 397 peak RRT 1.00 ([2]; DCM, 72 Hrs, Amber): 99.13%
Peak Area % (280 nm), AMG 397 peak RRT 1.00 ([2]; DCM, 72 Hrs, Clear): 98.78%
Peak Area % (280 nm), AMG 397 peak RRT 1.00 ([2]; DCM, Initial): 99.52%
Stability in DCM ([2]; DCM, up to 24 hours at room temperature): stable
Peak Area % (280 nm), AMG 397 peak RRT 1.00 ([2]; THF, 2 Hrs, Amber): 99.41%
Peak Area % (280 nm), AMG 397 peak RRT 1.00 ([2]; THF, 2 Hrs, Clear): 98.98%
Peak Area % (280 nm), AMG 397 peak RRT 1.00 ([2]; THF, 4 Hrs, Amber): 99.51%
Peak Area % (280 nm), AMG 397 peak RRT 1.00 ([2]; THF, 4 Hrs, Clear): 97.51%
Peak Area % (280 nm), AMG 397 peak RRT 1.00 ([2]; THF, 24 Hrs, Amber): 98.62%
Peak Area % (280 nm), AMG 397 peak RRT 1.00 ([2]; THF, 24 Hrs, Clear): 92.68%
Peak Area % (280 nm), AMG 397 peak RRT 1.00 ([2]; THF, 72 Hrs, Amber): 97.20%
Peak Area % (280 nm), AMG 397 peak RRT 1.00 ([2]; THF, 72 Hrs, Clear): 90.59%
Peak Area % (280 nm), AMG 397 peak RRT 1.00 ([2]; THF, Initial): 99.52%
Stability in THF ([2]; THF, presence of light accelerated degradation): unstable
